Laboratory results from patent publication US20140182011A1, “Methods Using Acyl-Coenzyme A-Binding Proteins to Enchance Drought Tolerance in Genetically Modified Plants” (The University of Hong Kong, priority 2011, published 2014).

What was measured:
Arabidopsis seeds = test: Seed germination with ABA treatment; format: in vivo
Procedure: To test ABA sensitivity at germination, over 200 seeds per experiment were sown on MS medium in the presence or absence of […] (Sigma-Aldrich, St Louis, Mo., USA). After 2 d at 4° C., seeds were germinated and grown under 16-hour-light (23° C.)/8-hour-dark (21° C.) cycles. Germination was examined daily with a microscope (Leica MZ6; Leica, Solms, Germany), and seedlings were photographed after 7 d. For post-germination growth assays, seeds were germinated on MS medium for 4 d, followed by transfer to MS medium or MS medium supplemented with […] for 7 d before photography and root measurements.

ACBP2 = test: qRT-PCR of ACBP2 expression after ABA treatment; format: in vivo, Arabidopsis; details: 12-day-old seedlings, ABA (100 µM), continuous white light
Procedure: TRIzol® reagent was also used for RNA extraction of 12-day-old Arabidopsis seedlings subject to treatment by 100 μM ABA or drought for the various times (0, 1, 3, 6 and 24 h) under continuous white light. First-strand was synthesized using the Superscript First-Strand Synthesis System (Invitrogen). QRT-PCR was performed using StepOne Plus (Applied Biosystems) and FastStart Universal SYBR Green Master (Roche). Transcript changes were analyzed according to Schmittgen and Livak (Nat. Protoc. 3:1101-1108 (2008) from three independent experiments.
To determine the effect of ABA treatment on ACBP2 expression, the expression of ACBP2 was examined by Real-time quantitative PCR (qRT-PCR) using primers ML1122 and ML1123 (SEQ ID NOs: 1 and 2) in 12-day-old seedlings before and after ABA treatment under continuous white light. qRT-PCR was performed using StepOne Plus (Applied Biosystems) and FastStart Universal SYBR Green Master (Roche). Transcript changes were analyzed according to Schmittgen and Livak (Nat. Protoc. 3: 1101-1108 (2008) from three independent experiments.

ACBP2pro:GUS = test: Histochemical GUS assay during germination; format: in vivo, Arabidopsis; details: ABA treatment
Procedure: Histochemical GUS assays were carried out using 5 bromo-4-chloro-3-indolyl-b-D-glucuronide (X-Glue) according to Liu et al., Plant Cell, 16: 5-20 (2004). Plant samples were immersed and vacuum filtrated in the GUS staining solution for 30 min (100 mM sodium phosphate buffer, pH 7.0, 0.1% Triton X-100, 2 mM potassium ferricyanide, 2 mM potassium ferrocyanide, 1 mg/mL 5 bromo-4-chloro-3-indolyl-β-D-glucuronide), incubated and observed over a period ranging from 3 to 16 h at 37° C. Subsequently, samples were cleared in 70% ethanol and photographed.

## CC1=CC(=O)CC(C)(C)[C@@]1(O)/C=C/C(C)=C\C(=O)O [ABA, Abscisic acid]
Arabidopsis seeds
  seed germination: suppressed germination
ACBP2
  ACBP2 expression (qRT-PCR): significant induction
ACBP2pro:GUS
  GUS expression as germination progressed: retained GUS expression
